# Test results: patent publication US20040082635A1, “Fused cyclic compounds and medicinal use thereof” (priority 2001, published 2004)
# Where a name gives a salt, the structure may show the parent alone.
# Molecular target: T1, HCV polymerase (Hepatitis C virus genotype 1b, UniProt P26663)
# T1 construct: a region encoding NS5B (591 amino acids; J Virol 1991 Mar, 65(3), 1105-13) was amplified by PCR; 6 His (N); made in house; host or cells: Escherichia coli
# Assay: biochemical
# Details: HCV polymerase inhibitory activity IC50
# T1 sequence (P26663 2420-3010): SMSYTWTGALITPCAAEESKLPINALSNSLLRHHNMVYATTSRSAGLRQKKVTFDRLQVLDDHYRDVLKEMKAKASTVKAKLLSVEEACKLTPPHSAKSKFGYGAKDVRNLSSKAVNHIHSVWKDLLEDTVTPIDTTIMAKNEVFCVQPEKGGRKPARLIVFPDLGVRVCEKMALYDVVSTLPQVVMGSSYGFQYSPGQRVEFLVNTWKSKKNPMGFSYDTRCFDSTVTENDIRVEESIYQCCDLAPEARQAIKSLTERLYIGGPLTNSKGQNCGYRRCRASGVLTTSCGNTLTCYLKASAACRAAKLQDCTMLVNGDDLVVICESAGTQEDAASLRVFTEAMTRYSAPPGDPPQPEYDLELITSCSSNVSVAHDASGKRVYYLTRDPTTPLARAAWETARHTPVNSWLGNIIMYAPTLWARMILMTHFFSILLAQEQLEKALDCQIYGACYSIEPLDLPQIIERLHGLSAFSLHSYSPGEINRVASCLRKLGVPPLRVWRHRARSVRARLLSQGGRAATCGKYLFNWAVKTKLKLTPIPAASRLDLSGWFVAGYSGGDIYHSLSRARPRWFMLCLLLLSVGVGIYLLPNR
row,SMILES,IC50
1,"CN(C)C(=O)c1ccc(-c2ccc(Cl)cc2)c(COc2ccc(-c3nc4cc(C(=O)O)ccc4n3C3CCCCC3)cc2)c1 [Example 265, 2-{4-[2-(4-chlorophenyl)-5-dimethylcarbamoylbenzyloxy]phenyl}-1-cyclohexylbenzimidazole-5-carboxylic acid hydrochloride]",14 nM

# Same assay, conditions: read-out: HCV polymerase inhibitory activity IC50
row,SMILES,IC50
1,"Cc1nc(-c2ccc(C(=O)O)cc2)c(COc2ccc(-c3nc4cc(C(=O)O)ccc4n3C3CCCCC3)cc2)s1 [Example 255, 1-cyclohexyl-2-{4-[{4-(4-carboxyphenyl)-2-methyl-5-thiazolyl}-methoxy]phenyl}benzimidazole-5-carboxylic acid hydrochloride]",38 nM
2,"O=C(O)c1ccc2c(c1)nc(-c1ccc(OCc3ccc(F)cc3C(=O)c3cccc(F)c3)cc1F)n2C1CCCCC1 [Example 256, 1-cyclohexyl-2-{2-fluoro-4-[4-fluoro-2-(3-fluorobenzoyl)benzyloxy]phenyl}benzimidazole-5-carboxylic acid]",79 nM
3,"COc1ccc(-c2ccc(Cl)cc2)c(COc2ccc(-c3nc4cc(S(=O)(=O)O)ccc4n3C3CCCCC3)cc2)c1 [Example 257, 2-{4-[2-(4-chlorophenyl)-5-methoxybenzyloxy]phenyl}-1-cyclohexylbenzimidazole-5-sulfonic acid]",74 nM
4,"CN(C)C(=O)c1cc(OCc2ccncc2)cc(Oc2ccc(-c3nc4cc(C(=O)O)ccc4n3C3CCCCC3)cc2)c1 [Example 259, 1-cyclohexyl-2-{4-[3-dimethylcarbamoyl-5-(4-pyridylmethoxy)-phenoxy]phenyl}benzimidazole-5-carboxylic acid dihydrochloride]",100 nM
5,"O=C(O)c1cc(OCc2ccncc2)cc(Oc2ccc(-c3nc4cc(C(=O)O)ccc4n3C3CCCCC3)cc2)c1 [Example 260, 1-cyclohexyl-2-{4-[3-carboxy-5-(4-pyridylmethoxy)phenoxy]-phenyl}benzimidazole-5-carboxylic acid dihydrochloride]",270 nM
6,"O=C(O)c1ccc(-c2ncccc2COc2ccc(-c3nc4cc(C(=O)O)ccc4n3C3CCCCC3)cc2)cc1 [Example 263, 2-{4-[{2-(4-carboxyphenyl)-3-pyridyl}methoxy]phenyl}-1-cyclohexylbenzimidazole-5-carboxylic acid]",35 nM
7,"COc1ccc(-c2ccc(Cl)cc2)c(COc2ccc(-c3nc4cc(C(=O)O)ccc4n3C3CCSCC3)cc2)c1 [Example 264, 2-{4-[2-(4-chlorophenyl)-5-methoxybenzyloxy]phenyl}-1-(4-tetrahydrothiopyranyl)benzimidazole-5-carboxylic acid]",< 10 nM
8,"CN(C)C(=O)c1ccc(-c2ccc(C(F)(F)F)cc2)c(COc2ccc(-c3nc4cc(C(=O)O)ccc4n3C3CCCCC3)cc2)c1 [Example 266, 1-cyclohexyl-2-{4-[3-dimethylcarbamoyl-6-(4-trifluoromethylphenyl)benzyloxy]phenyl}benzimidazole-5-carboxylic acid hydrochloride]",18 nM
9,"CSc1ccc(-c2ccc(C(=O)N(C)C)cc2COc2ccc(-c3nc4cc(C(=O)O)ccc4n3C3CCCCC3)cc2)cc1 [Example 267, 1-cyclohexyl-2-{4-[3-dimethylcarbamoyl-6-(4-methylthiophenyl)-benzyloxy]phenyl}benzimidazole-5-carboxylic acid hydrochloride]",14 nM
10,"CN(C)C(=O)c1ccc(-c2ccc(Cl)cc2)c(COc2ccc(-c3nc4cc(C(=O)O)ccc4n3C3CCCCC3)c(F)c2)c1 [Example 269, 2-{4-[2-(4-chlorophenyl)-5-dimethylcarbamoylbenzyloxy]-2-fluorophenyl}-1-cyclohexylbenzimidazole-5-carboxylic acid hydrochloride]",13 nM
11,"NC(=O)c1ccc(-c2ccc(Cl)cc2)c(COc2ccc(-c3nc4cc(C(=O)O)ccc4n3C3CCCCC3)c(F)c2)c1 [Example 270, 2-{4-[3-carbamoyl-6-(4-chlorophenyl)benzyloxy]-2-fluorophenyl}-1cyclohexylbenzimidazole-5-carboxylic acid hydrochloride]",12 nM
12,"CN(C)C(=O)c1ccc(-c2ccc(S(C)(=O)=O)cc2)c(COc2ccc(-c3nc4cc(C(=O)O)ccc4n3C3CCCCC3)cc2)c1 [Example 271, 2-{4-[3-dimethylcarbamoyl-6-(4-methanesulfonylphenyl)benzyloxy]-phenyl}-1-cyclohexylbenzimidazole-5-carboxylic acid hydrochloride]",24 nM
13,"CN(C)C(=O)c1ccc(-c2cccnc2)c(COc2ccc(-c3nc4cc(C(=O)O)ccc4n3C3CCCCC3)cc2)c1 [Example 272, 2-{4-[3-dimethylcarbamoyl-6-(3-pyridyl)benzyloxy]phenyl}-1-cyclohexylbenzimidazole-5-carboxylic acid dihydrochloride]",66 nM
14,"CN(C)C(=O)c1ccc(-c2ccc(C(=O)N(C)C)cc2COc2ccc(-c3nc4cc(C(=O)O)ccc4n3C3CCCCC3)cc2)cc1 [Example 273, 2-{4-[3-dimethylcarbamoyl-6-(4-dimethylcarbamoylphenyl)-benzyloxy]phenyl}-1-cyclohexylbenzimidazole-5-carboxylic acid]",41 nM
15,"COc1ccc(-c2ccc(Cl)cc2)c(COc2ccc(-c3nc4cc(C(=O)O)ccc4n3C3CCSCC3)c(F)c2)c1 [Example 276, 2-{4-[2-(4-chlorophenyl)-5-methoxybenzyloxy]-2-fluorophenyl}-1-(4-tetrahydrothiopyranyl)benzimidazole-5-carboxylic acid]",23 nM
16,"CN(C)S(=O)(=O)c1ccc(-c2ccc(Cl)cc2)c(COc2ccc(-c3nc4cc(C(=O)O)ccc4n3C3CCCCC3)cc2)c1 [Example 279, 2-{4-[2-(4-chlorophenyl)-5-dimethylsulfamoylbenzyloxy]phenyl}-1-cyclohexylbenzimidazole-5-carboxylic acid hydrochloride]",17 nM
17,"CS(=O)(=O)c1ccc(-c2ccc(Cl)cc2)c(COc2ccc(-c3nc4cc(C(=O)O)ccc4n3C3CCCCC3)cc2)c1 [Example 280, 2-{4-[2-(4-chlorophenyl)-5-methanesulfonylbenzyloxy]phenyl}-1-cyclohexylbenzimidazole-5-carboxylic acid]",16 nM
18,"CN(C)c1ccc(-c2ccc(Cl)cc2)c(COc2ccc(-c3nc4cc(C(=O)O)ccc4n3C3CCCCC3)cc2)c1 [Example 282, 2-{4-[2-(4-chlorophenyl)-5-dimethylaminobenzyloxy]phenyl}-1-cyclohexylbenzimidazole-5-carboxylic acid]",19 nM
19,"CS(=O)(=O)Nc1ccc(-c2ccc(Cl)cc2)c(COc2ccc(-c3nc4cc(C(=O)O)ccc4n3C3CCCCC3)cc2)c1 [Example 283, 2-{4-[2-(4-chlorophenyl)-5-methanesulfonylaminobenzyloxy]phenyl}-1-cyclohexylbenzimidazole-5-carboxylic acid]",14 nM
20,"CCN(CC)C(=O)c1ccc(-c2ccc(Cl)cc2)c(COc2ccc(-c3nc4cc(C(=O)O)ccc4n3C3CCCCC3)c(F)c2)c1 [Example 284, 2-{4-[2-(4-chlorophenyl)-5-diethylcarbamoylbenzyloxy]-2-fluorophenyl}-1-cyclohexylbenzimidazole-5-carboxylic acid]",14 nM
21,"O=C(O)c1ccc2c(c1)nc(-c1ccc(OCc3cc(C(=O)N4CCCCC4)ccc3-c3ccc(Cl)cc3)cc1F)n2C1CCCCC1 [Example 286, 2-{4-[2-(4-chlorophenyl)-5-piperidinocarbonylbenzyloxy]-2-fluorophenyl}-1-cyclohexylbenzimidazole-5-carboxylic acid]",14 nM
